The nature of series [1]: Free ellagic acid dissolved in the aqueous medium of the heat-treated solution (HPLC quantification). In kind it is physicochemical.
Method: (§1) Free ellagic acid was quantified by a gradient method using a high-performance liquid chromatograph manufactured by Hitachi, Ltd. with a column Cadenza CD-C18 (4.6 mmφ×150 mm, 3 μm) manufactured by Imtakt Corporation at a column temperature of 40° C. A 0.05 mol/L aqueous solution of acetic acid was used as a mobile phase solution A, and acetonitrile was used as a mobile phase solution B, respectively, and they were delivered at 1.0 mL/min.
(§2) The sample injection volume was 10 μL, and quantification was carried out based on an absorbance at a wavelength of 254 nm.
Solubilization ratio (%) of free ellagic acid=[(Mass of free ellagic acid dissolved in water or aqueous medium)/(Mass of free ellagic acid in material for heat treatment)]×100
The solution in the slurry supply tank was fed to a stainless-steel flow reactor having an inner volume of 100 mL (manufactured by Nitto Koatsu Co., Ltd.) at 100 mL/min, and was subjected to heat treatment at 110° C. (mean residence time: 1 minute). The pressure was adjusted to 0.3 MPa (gauge pressure) with an outlet valve. […] The cooling rate determined from the time of cooling from 110° C. to 90° C. was 7.88° C./s. A part of the heat-treated solution was sampled, and the amount of free ellagic acid dissolved in the aqueous medium was measured to determine a solubilization ratio.
Series [2] is described as follows: Evaluation of solubility: free ellagic acid dissolved in water from the dried ellagic acid composition. It is filed as physicochemical.
Method: as §1, §2
The solubility of free ellagic acid in water in an ellagic acid composition after drying was determined by: adding the ellagic acid composition to distilled water so that the amount of solids was one in an aqueous solution or a suspension before drying; shaking the mixture at 25° C. for 5 minutes; filtering the resultant with a cellulose acetate membrane filter having a pore size of 0.2 μm; and measuring the concentration of ellagic acid dissolved therein.
Solubilization ratio (%) of free ellagic acid=[(Mass of free ellagic acid dissolved in water or aqueous medium)/(Mass of free ellagic acid in material for heat treatment)]×100 […]

With `O=c1oc2c(O)c(O)cc3c(=O)oc4c(O)c(O)cc1c4c23` [Comparative Example 1, ellagic acid dihydrate], the Solubilization ratio in series [1] came to 8%; in series [2] (5 min), 6%. Moreover, the “Concentration of free ellagic acid dissolved in aqueous medium (25° C.)” value in series [1] (heat-treated solution before drying, 25° C.) was 6000 ng/mL. Also, in series [2] (composition powder after freeze or spray drying, redissolved in distilled water, shaken 5 minutes at 25° C., 0.2 μm filter), the “Concentration of free ellagic acid dissolved in water (25° C.)” value stood at 5000 ng/mL.

Source of the values: US9822091B2, “Method for producing ellagic acid composition” (KAO CORPORATION, priority 2013, dated 2017).
